Data reported in ChEMBL document CHEMBL1201862, “PubChem BioAssay data set” (2004).
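Method: 48-hour compound exposure of cells in 96-well plates, five concentrations, linear interpolation of endpoints. GI50 is the concentration that inhibits growth by half.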 Active and inactive are the calls of the source. No stated cut-off is given here; in the data, active = GI50 up to about 1.1 µM and inactive = higher.

Columns and labels:
Test in all cases: inhibition of tumour cell growth, NCI panel, 48 h
LOX IMVI = tested on: LOX IMVI
OVCAR-5 = tested on: OVCAR-5
SNB-75 = tested on: SNB-75
SF-295 = tested on: SF-295
HOP-92 = tested on: HOP-92
CAKI-1 = tested on: CAKI-1
OVCAR-4 = tested on: OVCAR-4
HCT-15 = tested on: HCT-15
MOLT-4 = tested on: MOLT-4
HCT-116 = tested on: HCT-116
SK-MEL-5 = tested on: SK-MEL-5
786-0 = tested on: 786-0
SF-539 = tested on: SF-539
COLO 205 = tested on: COLO 205
NCI-H522 = tested on: NCI-H522
OVCAR-8 = tested on: OVCAR-8
EKVX = tested on: EKVX
MDA-MB-435 = tested on: MDA-MB-435
MCF7 = tested on: MCF7
T47D = tested on: T47D

| SMILES | GI50 (LOX IMVI) | GI50 (OVCAR-5) | GI50 (SNB-75) | GI50 (SF-295) | GI50 (HOP-92) | GI50 (CAKI-1) | GI50 (OVCAR-4) | GI50 (HCT-15) | GI50 (MOLT-4) | GI50 (HCT-116) | GI50 (SK-MEL-5) | GI50 (786-0) | GI50 (SF-539) | GI50 (COLO 205) | GI50 (NCI-H522) | GI50 (OVCAR-8) | GI50 (EKVX) | GI50 (MDA-MB-435) | GI50 (MCF7) | GI50 (T47D) |
| --- | --- | --- | --- | --- | --- | --- | --- | --- | --- | --- | --- | --- | --- | --- | --- | --- | --- | --- | --- | --- |
| NCCSc1nc(N)c2ncn(C3OC(CO)C(O)C3O)c2n1 (stereo unspecified) | > 100 µM (inactive) | > 100 µM (inactive) | > 100 µM (inactive) | > 100 µM (inactive) | > 100 µM (inactive) | > 100 µM (inactive) | > 100 µM (inactive) | > 100 µM | > 100 µM (inactive) | > 100 µM (inactive) | > 100 µM (inactive) | > 100 µM (inactive) | > 100 µM (inactive) | > 100 µM (inactive) | > 100 µM (inactive) | > 100 µM (inactive) | – | – | – | – |
| N#CSC#Cc1ccc(C#CSC#N)cc1 | 16.3 µM (inactive) | 19.2 µM (inactive) | – | 20.9 µM (inactive) | 12.5 µM (inactive) | 16.1 µM (inactive) | 8.81 µM (inactive) | 19.4 µM | 36.2 µM (inactive) | 19 µM (inactive) | 18.2 µM (inactive) | 17.2 µM (inactive) | 20.9 µM (inactive) | 18.2 µM (inactive) | 11.1 µM (inactive) | 19.6 µM (inactive) | 18.5 µM (inactive) | 20.9 µM (inactive) | 19.9 µM (inactive) | – |
| O=C(CN(C(=O)OC12CC3CC(CC(C3)C1)C2)C(=O)OC12CC3CC(CC(C3)C1)C2)Oc1ccc([N+](=O)[O-])cc1 | > 100 µM (inactive) | > 100 µM (inactive) | > 100 µM (inactive) | > 100 µM (inactive) | > 100 µM (inactive) | > 100 µM (inactive) | > 100 µM (inactive) | > 100 µM | 4.2 µM (inactive) | > 100 µM (inactive) | 87.5 µM (inactive) | > 100 µM (inactive) | > 100 µM (inactive) | > 100 µM (inactive) | 59 µM (inactive) | > 100 µM (inactive) | > 100 µM (inactive) | 45.3 µM (inactive) | > 100 µM (inactive) | – |
| O=c1o[nH]/c(=N/c2ccccc2)n1-c1ccccc1 | > 100 µM (inactive) | > 100 µM (inactive) | > 100 µM (inactive) | > 100 µM (inactive) | > 100 µM (inactive) | > 100 µM (inactive) | > 100 µM (inactive) | > 100 µM | > 100 µM (inactive) | > 100 µM (inactive) | > 100 µM (inactive) | > 100 µM (inactive) | > 100 µM (inactive) | > 100 µM (inactive) | – | > 100 µM (inactive) | > 100 µM (inactive) | – | > 100 µM (inactive) | – |
| COC(=O)C(=O)C(C(C)=O)C(=O)NCc1ccccc1 (stereo unspecified) | 50.1 µM (inactive) | > 100 µM (inactive) | > 100 µM (inactive) | > 100 µM (inactive) | > 100 µM (inactive) | > 100 µM (inactive) | > 100 µM (inactive) | > 100 µM | > 100 µM (inactive) | > 100 µM (inactive) | > 100 µM (inactive) | > 100 µM (inactive) | > 100 µM (inactive) | > 100 µM (inactive) | > 100 µM (inactive) | > 100 µM (inactive) | > 100 µM (inactive) | – | – | – |
| C/C(=N/NC(=S)N(C)C)c1ccccc1O | 4.86 µM (inactive) | 17.4 µM (inactive) | 6.82 µM (inactive) | 11.8 µM (inactive) | > 75.2 µM (inactive) | 25.7 µM (inactive) | 11.3 µM (inactive) | 3.28 µM | 20.5 µM (inactive) | 3.33 µM (inactive) | 7.67 µM (inactive) | 6.32 µM (inactive) | 8.91 µM (inactive) | 13.7 µM (inactive) | 9.86 µM (inactive) | 5.22 µM (inactive) | 29.1 µM (inactive) | 21.6 µM (inactive) | – | 14.5 µM (inactive) |
| CCc1cccc(C(C)CC)c1NC(=O)C(=O)Cc1nc2ccccc2o1 (stereo unspecified) | > 50 µM (inactive) | > 43.8 µM (inactive) | > 50 µM (inactive) | > 50 µM (inactive) | > 50 µM (inactive) | > 50 µM (inactive) | > 50 µM (inactive) | > 50 µM | > 34.5 µM (inactive) | > 50 µM (inactive) | > 50 µM (inactive) | > 50 µM (inactive) | > 50 µM (inactive) | > 50 µM (inactive) | > 50 µM (inactive) | > 50 µM (inactive) | > 50 µM (inactive) | – | – | – |
| CC(=O)N1C=Cc2c(c(C)c3c([nH]c4ccccc43)c2C)C1 | 4.07 µM (inactive) | 9.25 µM (inactive) | – | 8.22 µM (inactive) | 5.4 µM (inactive) | 10.1 µM (inactive) | 2.13 µM (inactive) | 2.1 µM | 13.1 µM (inactive) | 1.53 µM (inactive) | 13.8 µM (inactive) | 2.41 µM (inactive) | 5.27 µM (inactive) | 2.4 µM (inactive) | 10.4 µM (inactive) | 6.03 µM (inactive) | 0.479 µM (active) | 13 µM (inactive) | 2.72 µM (inactive) | – |
